Source: patent US9024018B2, “3-substituted-8-substituted-3H-imidazo[5,1-d][1,2,3,5]tetrazin-4-one compounds and their use” (Pharminox Limited, priority 2009, dated 2015)

Columns and labels:
Format in all cases: cell-based
U373M = experiment: MTT assay for 7-day toxicity, U373M glioma cells (stably transfected with MGMT, MGMT+); settings: 7 day MTT assay, glioma line U373M
Procedure: (§1) The cell culture techniques were carried out in a Class II microbiological safety cabinet which was swabbed with 70% IMS in distilled water before each use. Glioma cells were routinely cultured in Costar tissue culture flasks in RPMI 1640 liquid medium (containing 0.3 g/L L-glutamine and 2 g/L sodium bicarbonate) supplemented with 10% heat inactivated FBS (55-59° C.) for 1 hour to denature complement proteins which would otherwise evoke a cellular immune response resulting in cell lysis, 1% non-essential amino acids, 50 μg/mL gentamicin and 400 μg/mL G418 (vector selection reagent). Colorectal and melanoma cells were maintained in RPMI 1640 supplemented with 10% FBS. MRC-5 cells were cultured in EMEM+10% FBS, 1% pen/strep, 1% non-essential amino acids, 1% HEPES (1M) and 1% sodium bicarbonate.
(§2) Cells were grown at 37° C. in a humidified incubator in an atmosphere comprising 95% air/5% CO2. Cells were sub-cultured when growth exceeded approximately 80% confluence, normally twice weekly. The medium was aspirated from the flask and approximately 0.8 mL trypsin-EDTA 1× solution added. The cells were re-incubated at 37° C. until they had visibly detached from the flask. The cells were re-suspended in 5 mL medium and 0.5-1 mL was transferred to a new flask (25 cm^2) with 7 mL culture medium. The cells were further incubated at 37° C. To minimize phenotypic drift, cells were disposed of once they had been subcultured 30 times. New batches of cells were thawed rapidly in 37° C. water bath once taken from liquid nitrogen storage and re-suspended in 10 mL of culture medium in a 25 cm^2 flask. Cells were passaged twice to allow normal growth to resume prior to use in experiments.
(§3) Most test compounds, including temozolomide, were prepared as 100 mM stock solutions in DMSO and stored at −20° C. for not more than 6 months.
(§4) MTT Assay for 7-Day Toxicity Assay
(§5) This assay was first described in Mosmann, T., 1983, “Rapid colorimetric assay for cellular growth and survival: Application to proliferation and cytotoxicity assays”, Journal of Immunological Methods, Vol. 65, Nos. 1-2, pp. 55-63.
(§6) Glioma cell lines, SNB19 and U373, both stably transfected with MGMT (i.e., SNB19M and U373M) or their respective vector controls (i.e., SNB19V and U373V); colorectal carcinoma cell lines, HCT116, HT29, and DLD1; melanoma cell line, SKMEL-28; breast cell line, MCF-7; and normal human fetal lung fibroblast cell line, MRC-5; were used at 60-80% confluence, during the logarithmic phase of growth.
(§7) Following harvesting with trypsin/EDTA, cells in suspension were gently syringed through a 23 gauge needle to obtain a near-single cell suspension. Cells were then seeded into 96-well plates at the desired density in 180 μL culture medium if only one test compound was to be added, or in 160 μL if two test compounds were to be added in combination. Cells were allowed to attach overnight by incubation at 37° C. in 95% air/5% CO2. For the 7 day assay, the cell seeding densities for the different cell lines were as follows: SNB19V, SNB19M: 650 cells/well; U373V, U373M: 650 cells/well; SNB19VR, U373VR: 650 cells/well; HCT116, DLD-1, SKMEL-28, MRC-5, MCF-7: 400 cells/well.
(§8) The two peripheral lanes of each plate were used as blank wells (cell free) and filled with 200 μL of medium in order to minimise medium evaporation from the plate. A separate time zero (T0) plate was set up alongside other plates. Serial dilutions in tissue culture medium of a 100 mM stock of test compound were prepared immediately before each assay to ten times the final concentrations required. 20 μL was added to each well (200 μL total media per well) to achieve final concentrations of 0.5 μM, 1 μM, 5 μM, 10 μM, 50 μM, 100 μM, 500 μM, and 1000 μM. A minimum of four wells received the same test compound concentration. To control wells, including those in the T0 plate, 20 μL of medium was added. […]

SNB19M = experiment: MTT assay for 7-day toxicity, SNB19M glioma cells (stably transfected with MGMT, MGMT+); settings: Glioma cell, 168 h, 7 day MTT assay, glioma line SNB19M
Procedure: as §1, §2, §3, §4, §5, §6, §7, §8

U373V = experiment: MTT assay for 7-day toxicity, U373V glioma cells (vector control, MGMT-); settings: Glioma cell, 168 h, 7 day MTT assay, glioma line U373V
Procedure: as §1, §2, §3, §4, §5, §6, §7, §8

SNB19V = experiment: MTT assay for 7-day toxicity, SNB19V glioma cells (vector control, MGMT-); settings: Glioma cell, 168 h, 7 day MTT assay, glioma line SNB19V
Procedure: as §1, §2, §3, §4, §5, §6, §7, §8

Row | SMILES | GI50 (U373M) [µM] | GI50 (U373M; Glioma cell, 168 h) [µM] | GI50 (SNB19M) [µM] | GI50 (U373V) [µM] | GI50 (SNB19V) [µM]
1 | COCn1nnc2c(-c3nc(-c4ccc(S(C)(=O)=O)cc4)cs3)ncn2c1=O [WW-027, 3-(Methoxymethyl)-8-(4-(4-(methylsulfonyl)phenyl)thiazol-2-yl)imidazo[5,1-d][1,2,3,5]tetrazin-4(3H)-one] | 33.1 | < 60 |  |  | 
2 | CSCn1nnc2c(-c3nc(-c4ccsc4)cs3)ncn2c1=O [WW-035, 3-(methylthiomethyl)-8-(4-(thiophen-3-yl)thiazol-2-1/1)imidazo[5,1-d][1,2,3,5]tetrazin-4(3H)-one] |  | < 60 | < 70 | < 75 | 
3 | COCn1nnc2c(-c3nc(C(C)(C)C)cs3)ncn2c1=O [WW-014, 8-(4-tert-Butylthiazol-2-yl)-3-(methoxymethyl)imidazo[5,1-d][1,2,3,5]tetrazin-4(3H)-one] |  | < 60 | < 70 | < 75 | 
4 | Cn1nnc2c(C(=O)NO)ncn2c1=O [RR-001, N-Hydroxy-3-methyl-4-oxo-3,4-dihydroimidazo[5,1-d][1,2,3,5]tetrazine-8-carboxamide] |  |  | 87.1 |  | 41
5 | CSCn1nnc2c(-c3nc(-c4cccs4)cs3)ncn2c1=O [WW-034, 3-(methylthiomethyl)-8-(4-(thiophen-2-yl)thiazol-2-yl)imidazo[5,1-d][1,2,3,5]tetrazin-4(3H)-one] |  | < 60 | < 70 | < 75 | 
6 | Cn1nnc2c(-c3nc(-c4nccs4)cs3)ncn2c1=O [WW-010, 8-(2,4′-Bithiazol-2′-yl)-3-methylimidazo[5,1-d][1,2,3,5]tetrazin-4(3H)-one] |  |  | < 70 |  | < 45
7 | COCn1nnc2c(-c3nnc(NCc4ccccc4)o3)ncn2c1=O [WW-046, 8-(5-(Benzylamino)-1,3,4-oxadiazol-2-yl)-3-(methoxymethyl)imidazo[5,1-d][1,2,3,5]tetrazin-4(3H)-one] |  | < 60 | < 70 | < 75 | 
8 | C#CCn1nnc2c(-c3nc(-c4ccc(Br)cc4)cs3)ncn2c1=O [WW-021] |  | < 60 | < 70 | < 75 | 
9 | COCn1nnc2c(-c3nc(-c4ccc5c(c4)OCO5)cs3)ncn2c1=O [WW-032] |  | < 60 | < 70 | < 75 | 
10 | CNc1nnc(-c2ncn3c(=O)n(C)nnc23)o1 [WW-045, 3-Methyl-8-(5-(methylamino)-1,3,4-oxadiazol-2-yl)imidazo[5,1-d][1,2,3,5]tetrazin-4(3H)-one] |  |  |  | < 75 | < 45
11 | COCn1nnc2c(-c3nc4ccccc4[nH]3)ncn2c1=O [WW-064, 8-(1H-Benzo[d]imidazol-2-yl)-3-(methoxymethyl)imidazo[5,1-d][1,2,3,5]tetrazin-4(3H)-one] |  |  | < 70 |  | < 45
12 | C#CCn1nnc2c(-c3nc(-c4cccs4)cn3C)ncn2c1=O [WW-053, 8-(1-Methyl-4-(thiophen-2-yl)-1H-imidazol-2-yl)-3-(prop-2-ynyl)imidazo[5,1-d][1,2,3,5]tetrazin-4(3H)-one] |  |  | < 70 |  | < 45
13 | C#CCn1nnc2c(-c3nc(C(C)(C)C)cs3)ncn2c1=O [WW-020, 8-(4-tert-Butylthiazol-2-yl)-3-(prop-2-ynyl)imidazo[5,1-d][1,2,3,5]tetrazin-4(3H)-one] |  |  | < 70 |  | 
14 | COCn1nnc2c(-c3nc(-c4ccncc4)cs3)ncn2c1=O [WW-019, 3-(Methoxymethyl)-8-(4-(pyridin-4-yl)thiazol-2-yl)imidazo[5,1-d][1,2,3,5]tetrazin-4(3H)-one] |  |  | < 70 |  | < 45
15 | Cn1nnc2c(-c3nnc(-c4ccccc4)o3)ncn2c1=O [WW-041, 3-Methyl-8-(5-phenyl-1,3,4-oxadiazol-2-yl)imidazo[5,1-d][1,2,3,5]tetrazin-4(3H)-one] |  |  |  | < 75 | < 45
16 | C[S+]([O-])Cn1nnc2c(-c3nc4ccccc4s3)ncn2c1=O (centres unmarked) [WW-061, 8-(Benzo[d]thiazol-2-yl)-3-(methylsulfinylmethyl)imidazo[5,1-d][1,2,3,5]tetrazin-4(3H)-one] |  |  | < 70 |  | < 45
17 | Cn1nnc2c(-c3nc4ccccc4n3C)ncn2c1=O [WW-066, 3-Methyl-8-(1-methyl-1H-benzo[d]imidazol-2-yl)imidazo[5,1-d][1,2,3,5]tetrazin-4(3H)-one] |  |  | < 70 |  | < 45
18 | CSCn1nnc2c(-c3nc(-c4ccccc4)cs3)ncn2c1=O [WW-030, 3-(Methylthiomethyl)-8-(4-phenylthiazol-2-yl)imidazo[5,1-d][1,2,3,5]tetrazin-4(3H)-one] |  | < 60 | < 70 | < 75 | 
19 | C[S+]([O-])Cn1nnc2c(-c3nc4ccccc4o3)ncn2c1=O (centres unmarked) [WW-056, 8-(Benzo[d]oxazol-2-yl)-3-(methylsulfinylmethyl)imidazo[5,1-d][1,2,3,5]tetrazin-4(3H)-one] |  |  | < 70 |  | < 45
20 | Cn1nnc2c(-c3nnc(Nc4ccccc4)o3)ncn2c1=O [WW-044, 3-Methyl-8-(5-(phenylamino)-1,3,4-oxadiazol-2-yl)imidazo[5,1-d][1,2,3,5]tetrazin-4(3H)-one] |  |  |  | < 75 | 
21 | COCn1nnc2c(-c3nc(-c4ccsc4)cs3)ncn2c1=O [WW-017] |  |  | < 70 |  | < 45
22 | COCn1nnc2c(-c3nc4ccccc4o3)ncn2c1=O [WW-057] |  |  | < 70 |  | 
23 | COCn1nnc2c(-c3nc(-c4cccs4)cs3)ncn2c1=O [WW-018, 3-(Methoxymethyl)-8-(4-(thiophen-2-yl)thiazol-2-yl)imidazo[5,1-d][1,2,3, 5]tetrazin-4(3H)-one] |  |  | < 70 |  | < 45
24 | Cn1nnc2c(-c3nc(-c4ccc(Br)cc4)cs3)ncn2c1=O [WW-022, 8-(4-(4-Bromophenyl)thiazol-2-yl)-3-methylimidazo[5,1-d][1,2,3,5]tetrazin-4(3H)-one] |  |  | < 70 |  | < 45
25 | COCn1nnc2c(-c3nc4ccccc4s3)ncn2c1=O [WW-060, 8-(Benzo[d]thiazol-2-yl)-3-(methoxymethyl)imidazo[5,1-d][1,2,3,5]tetrazin-4(3H)-one] |  |  | < 70 |  | < 45
26 | C#CCn1nnc2c(-c3nc4ccccc4s3)ncn2c1=O [WW-059, 8-(Benzo[d]thiazol-2-yl)-3-(prop-2-ynyl)imidazo[5,1-d][1,2,3, 5]tetrazin-4(3H)-one] |  |  | < 70 |  | < 45
27 | C#CCn1nnc2c(-c3nc4ccccc4n3C)ncn2c1=O [WW-065, 8-(1-Methyl-1H-benzo[d]imidazol-2-yl)-3-(prop-2-ynyl)imidazo[5,1-d][1,2,3,5]tetrazin-4(3H)-one] |  |  | < 70 |  | < 45
28 | Cn1nnc2c(-c3nc(-c4cccs4)cs3)ncn2c1=O [WW-011, 3-Methyl-8-(4-(thiophen-2-yl)thiazol-2-yl)imidazo[5,1-d][1,2,3,5]tetrazin-4(3H)-one] |  |  | < 70 | < 75 | < 45
29 | C[S+]([O-])Cn1nnc2c(-c3nnc(-c4ccccc4)o3)ncn2c1=O (centres unmarked) [WW-043, 3-(Methylsulfinylmethyl)-8-(5-phenyl-1,3,4-oxadiazol-2-yl)imidazo[5,1-d][1,2,3,5]tetrazin-4(3H)-one] |  |  | < 70 |  | < 45
30 | Cn1nnc2c(-c3nc4ccccc4o3)ncn2c1=O [WW-054, 8-(Benzo[d]oxazol-2-yl)-3-methylimidazo[5,1-d][1,2,3,5]tetrazin-4(3H)-one] |  |  |  | < 75 | < 45
